Results: US20240209011A1, “HETEROAROMATIC PHOSPHONIUM SALTS FOR TREATING CANCER” (FLORATEK PHARMA S.A., priority 2021, published 2024)

What was measured:
Format in all cases: cell-based
NCI-H460 = assay: Cell viability assay (CellTiter-Blue/CellTiter-Glow); settings: Homo sapiens; lung carcinoma cell line NCI-H460; absolute IC50; 72 h
Protocol: (§1) Antitumor activity of the compounds and doxorubicin as a positive control was assessed by using the CellTiter-Blue Cell Viability Assay (Promega, #G8082) or CellTiter-Glow® Luminescent Cell Viability assay (Promega #G7572) according to the manufacturer's instructions. The compounds were tested at 5 or 6 concentrations in half-log increments (highest concentration 30 μM or 100 μM) in duplicate or triplicate well conditions.
(§2) Tumor cells were grown at 37° C. in a humidified atmosphere with 5% CO2 in RPMI 1640 or DMEM medium, supplemented with 10% (v/v) fetal calf serum and 50 μg/ml gentamicin for up to 20 passages, and were passaged once or twice weekly. Cells were harvested using TrypLE or PBS buffer containing 1 mM EDTA, and the percentage of viable cells is determined using a CASY Model TI cell counter (OMNI Life Science). Cells were harvested from exponential phase cultures, counted and plated in 96 well flat-bottom microtiter plates at a cell density depending on the cell line's growth rate (4,000-20,000 cells/well depending on the cell line's growth rate, up to 60,000 for hematological cancer cell lines) in RPMI 1640 or DMEM medium supplemented with 10% (v/v) fetal calf serum and 50 μg/ml gentamicin (140 μl/well). Cultures were incubated at 37° C. and 5% CO2 in a humidified atmosphere. After 24 h, 10 μl of test compounds or control medium were added, and left on the cells for another 72 h. Compounds were serially diluted in DMSO, transferred in cell culture medium, and added to the assay plates. The DMSO concentration was kept constant at <0.3% v/v across the assay plate. Viability of cells was quantified by the CellTiter-Blue® cell viability assay (Promega G8081) or CellTiter-Glow® Luminescent Cell Viability assay (Promega #G7572). Fluorescence (FU) was measured by using the EnSpire® multimode plate reader (Perkin Elmer) (excitation X=570 nm, emission λ=600 nm). Luminescence was measured with a microplate luminometer (Promega or PerkinElmer).
(§3) Sigmoidal concentration-response curves were fitted to the data points (test-versus-control, T/C values) obtained for each tumor model using 4 parameter non-linear curve fit (Charles River DRS Datawarehouse Software) or with GraphPad prism 5.02 software. IC50 values are reported as absolute IC50 values, being the concentration of test compound at the intersection of the concentration-response curves with T/C=50% Cell lines tested are presented in Table 1.

HCT-15 = assay: as above; settings: Homo sapiens; colon carcinoma cell line HCT-15; absolute IC50; 72 h
Protocol: as §1, §2, §3

SK-OV-3 = assay: as above; settings: Homo sapiens; ovarian carcinoma cell line SK-OV-3; absolute IC50; 72 h
Protocol: as §1, §2, §3

CALU-6 = assay: as above; settings: Homo sapiens; lung carcinoma cell line CALU-6; absolute IC50; 72 h
Protocol: as §1, §2, §3

OVCAR-3 = assay: as above; settings: Homo sapiens; ovarian carcinoma cell line OVCAR-3; absolute IC50; 72 h
Protocol: as §1, §2, §3

H1299 = assay: as above; settings: Homo sapiens, NCI-H1299; lung carcinoma cell line H1299; absolute IC50; 72 h
Protocol: as §1, §2, §3

HT-29 = assay: as above; settings: Homo sapiens; colon carcinoma cell line HT-29; absolute IC50; 72 h
Protocol: as §1, §2, §3

SF-268 = assay: as above; settings: Homo sapiens; brain carcinoma cell line SF-268; absolute IC50; 72 h
Protocol: as §1, §2, §3

Mia-Pa-Ca-2 = assay: as above; settings: Homo sapiens, MIA PaCa-2; pancreatic carcinoma cell line Mia-Pa-Ca-2; absolute IC50; 72 h
Protocol: as §1, §2, §3

K-562 = assay: as above; settings: Homo sapiens, K562; leukaemia cell line K-562; absolute IC50; 72 h
Protocol: as §1, §2, §3

A549 = assay: as above; settings: Homo sapiens; lung carcinoma cell line A549; absolute IC50; 72 h
Protocol: as §1, §2, §3

U-87 = assay: as above; settings: Homo sapiens, U-87 MG; brain carcinoma cell line U-87; absolute IC50; 72 h
Protocol: as §1, §2, §3

lung PDX = assay: Activity against lung PDX; settings: lung PDX growth; Table 16
Protocol: (§4) PDX-derived cell cultures were obtained from tumors explanted from mice and isolated by mechanical and enzymatic dissociation. […] Cells were harvested and seeded in 96-wells plates at a density of 1.25 to 5×10^3 cells/well for cytotoxicity assays. Cells were incubated 48 h at 37° C. prior to addition of test molecules and vehicle (DMSO, 0.1%) at desired final concentrations. Cell viability was assessed before drugs' addition (To) and 5 days after test molecules addition by measuring ATP cell content using CellTiter-Glo® Luminescent Cell Viability Assay (Promega) according to the manufacturer's instructions. Luciferase activity was measured on a luminometer (PerkinElmer® EnVision™). Each concentration of compounds was tested in triplicate.
(§5) Viability was calculated as a percentage of ATP value compared to vehicle treated controls.
(§6) For PDX primary cell cultures, the tumour tissue was washed with PBS containing antibiotic-antimycotic and non-tumour tissue and necrotic tumour tissues were separated. The tumour tissue was transferred to a new dish and cut into 1-2 mm^3 fragments, resuspended in RPMI-1640 medium and centrifuged at 1,200 rpm for 6 min at room temperature. The pelleted material was resuspended with 15 mL of Tumour Cell Digestion Solution and incubated at 37° C. for 1 hour with agitation. Following further addition of media, centrifugation and passage through a […] cell strainer, the homogenous cell mixture was layered onto 15 mL of Ficoll-Paque PLUS in a 50 mL conical tube and centrifuged for 15 min at 1,600 rpm. The interface cells were collected, washed with media, separated by centrifugation at 1,200 rpm. The cell pellet was resuspended in serum free media supplemented with growth factors. 10,000 cells/wells were plated in a 96 well plate and incubated at 37° C., 5% CO2, 95% air and 100% relative humidity overnight. The cytotoxicity assay was conducted as above. IC50 values represent absolute IC50.

endometrial PDX = assay: Activity against endometrial PDX; settings: endometrial PDX growth; text summary of Table 9
Protocol: as §4, §5, §6

head and neck PDX = assay: Activity against head and neck PDX; settings: head and neck PDX growth; Table 11
Protocol: as §4, §5, §6

KM-12 = assay: Cell viability assay (CellTiter-Blue/CellTiter-Glow); settings: Homo sapiens, KM12; colon carcinoma cell line KM-12; absolute IC50
Protocol: as §1, §2, §3

| Compound | IC50 (NCI-H460) | IC50 (HCT-15) | IC50 (CALU-6) | IC50 (OVCAR-3) | IC50 (HT-29) | IC50 (U-87) | IC50 (SK-OV-3) | IC50 (H1299) | IC50 (SF-268) | IC50 (Mia-Pa-Ca-2) | IC50 (K-562) | IC50 (A549) | IC50 (lung PDX) | IC50 (endometrial PDX) | IC50 (head and neck PDX) | IC50 (KM-12) |
| --- | --- | --- | --- | --- | --- | --- | --- | --- | --- | --- | --- | --- | --- | --- | --- | --- |
| O=c1cc(-c2ccc(CCCC[P+](c3ccccc3)(c3ccccc3)c3ccccc3)cc2)oc2c3c(ccc12)OCO3.[Br-] [SND123, 4-[4-(6-oxo-[1,3]dioxolo[4,5-h]chromen-8-yl)phenyl]butyl-triphenylphosphonium bromide] | 5.04 µM | 9.3 µM | 1140 nM | 2.36 µM | 9.3 µM | 870 nM |  |  | 3.15 µM | 1320 nM |  | 8.08 µM | < 20 µM | < 20 µM | < 10 µM | 3 µM |
| CCNC(=O)Oc1ccc2c(=O)cc(-c3ccc(CCCC[P+](c4ccccc4)(c4ccccc4)c4ccccc4)cc3)oc2c1OC(=O)NCC.[Br-] [SND124, 4-[4-[7,8-Bis(ethylcarbamoyloxy)-4-oxo-chromen-2-yl]phenyl]-butyltriphenylphosphonium bromide] |  | 10 µM |  |  | 2.96 µM | 1180 nM | 3.4 µM | 4.27 µM |  | 4800 nM | 20 nM | 11.2 µM | < 20 µM | < 20 µM | < 10 µM | 2.7 µM |
| CCNC(=O)Oc1ccc2c(=O)cc(-c3ccc(CCCC[P+](c4ccccc4)(c4ccccc4)c4ccccc4)cc3)oc2c1O.[Br-] [SND126A, 4-[4-[7-(Ethylcarbamoyloxy)-8-hydroxy-4-oxo-chromen-2-yl]phenyl]butyltriphenylphosphonium bromide] |  |  |  | 6.54 µM |  |  |  |  | 10.7 µM | 960 nM |  |  | < 20 µM | < 20 µM | < 10 µM | 3.2 µM |
| CC(C)NC(=O)Oc1ccc2c(=O)cc(-c3ccc(CCCC[P+](c4ccccc4)(c4ccccc4)c4ccccc4)cc3)oc2c1O [SND127, 4-[4-[7-(Isopropylcarbamoyloxy)-8-hydroxy-4-oxo-chromen-2-yl]phenyl]butyltriphenylphosphonium bromide] | 5.58 µM |  | 7130 nM | 5.7 µM | 6.4 µM | 3800 nM | 11.5 µM | 12.7 µM | 11.9 µM | 1810 nM | 1230 nM | 5.3 µM |  |  |  |  |

Second part, led by results:

| IC50 (NCI-H460) | IC50 (HCT-15) | IC50 (CALU-6) | IC50 (OVCAR-3) | IC50 (HT-29) | IC50 (U-87) | Compound | IC50 (SK-OV-3) | IC50 (H1299) | IC50 (SF-268) | IC50 (Mia-Pa-Ca-2) | IC50 (K-562) | IC50 (A549) | IC50 (lung PDX) | IC50 (endometrial PDX) | IC50 (head and neck PDX) | IC50 (KM-12) |
| --- | --- | --- | --- | --- | --- | --- | --- | --- | --- | --- | --- | --- | --- | --- | --- | --- |
| 0.29 µM | 3.3 µM | 1470 nM | 7.3 µM | 10.3 µM | 1760 nM | O=c1cc(-c2ccc(CCCC[P+](c3ccccc3)(c3ccccc3)c3ccccc3)cc2)oc2c(O)c(O)ccc12 [SND118, 4-[4-(7,8-dihydroxy-4-oxo-chromen-2-yl)phenyl]butyltriphenyl-phosphonium bromide] | 6.35 µM | 1.28 µM | 15.6 µM | 1900 nM | 140 nM | 12.5 µM |  |  |  |  |
| 10.8 µM |  | 3800 nM | 8.87 µM | 14.2 µM | 5400 nM | COc1c(O)ccc2c(=O)cc(-c3ccc(CCCC[P+](c4ccccc4)(c4ccccc4)c4ccccc4)cc3)oc12.[Br-] [SND140, (4-(4-(7-hydroxy-8-methoxy-4-oxo-4H-chromen-2-yl)phenyl)butyl)triphenylphosphonium bromide] |  |  | 9.5 µM |  |  |  | < 20 µM | < 20 µM | < 10 µM | 5.6 µM |
